Holding throughout (test): NCI-60 cell line screen, 48 h
Test [1] relates to RXF 393 renal.
The subject of test [2] is HCT-15 colon.
In test [3] the test system is SNB-19 CNS.
Test [4] deals with 786-0 renal.
Test [5] deals with MCF7 breast.
Test [6] deals with M14 melanoma.

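Compound exposure: 48 hours, 5 concentrations, 96-well plates. TGI is the concentration that stops growth completely.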 Where a SMILES comes first, the peptide text is derived from it. Bounds are passed on as bounds.

On to `CCOC(=O)NC`, for which the TGI in test [1], in test [2], in test [3], in test [4], in test [5] and in test [6] was more than 100 µM each time.

As to `C/C=C/C(C#N)(Cc1ccccc1)OP1(=O)OC(c2ccccc2)C(C)N1C` (stereo not given), the TGI in test [1], in test [2], in test [3], in test [4], in test [5] and in test [6] was more than 100 µM in each case.

With `O=C(O)c1nc2ccccc2nc1Nc1ccc(F)cc1`, the TGI in test [1] is 51.8 µM; in test [2] it was 89.8 µM; in test [3], more than 100 µM; in test [4] it was more than 100 µM; in test [5] it was 74.8 µM; in test [6] it was more than 100 µM.

In the case of `OCc1ccc2c(c1)CC1(C2)Cc2cc3c(cc2C1)CCC3`, the TGI in test [1] was 28.5 µM; in test [2], more than 100 µM; in test [3], more than 100 µM; in test [4], more than 100 µM; in test [5], more than 100 µM; in test [6] it was more than 100 µM.

As for `Cc1cc(N(CCCCl)CCCCl)ccc1C=Nc1cccc(Cl)c1`, the TGI in test [1] is 35.5 µM; in test [2] it was 30.2 µM; in test [3], 34.6 µM; in test [4] it was 43.2 µM; in test [5], 49.9 µM; in test [6], 60.5 µM.

With `Cc1nc(-c2cc3c(ccc4ccccc43)oc2=O)cc2c1c(=O)oc1ccc3ccccc3c12`, the TGI in test [1], in test [2], in test [3], in test [4], in test [5] and in test [6] was more than 100 µM in each case.

With `COc1ccc2c(c1)CC[C@@H]1[C@@H]2CC[C@]2(C)C(=O)/C(=C/c3ccncc3)C[C@@H]12`, the TGI was 46.7 µM in test [1]; more than 100 µM in test [2]; more than 100 µM in test [3]; more than 100 µM in test [4]; more than 100 µM in test [5]; more than 100 µM in test [6].

Regarding `O=C(O)Cc1cccc2c1OC(c1ccccc1)C(C(=O)c1ccccc1)C2=O` (stereo not given), the TGI in test [1], in test [2], in test [3], in test [4] and in test [5] was more than 100 µM each time.

Consider `CSCCCNC(=O)c1csc(-c2csc(CCN)n2)n1`, for which the TGI in test [1], in test [2], in test [3], in test [4], in test [5] and in test [6] was more than 100 µM each time.

Take `NC1=CN(Cc2ccccc2)C2=N/C(=C\c3ccccc3)C(=O)N12`: the TGI in test [1], in test [2], in test [3], in test [4], in test [5] and in test [6] was more than 100 µM in each case.

On to `Nc1nc(Cl)cc(NCC2(CO)CCC(O)C2)n1` (stereo not given), for which the TGI in test [1], in test [2], in test [3], in test [4], in test [5] and in test [6] was more than 100 µM in each case.

As to `CC(=O)NC(CS)C(=O)NC(CO)C(=O)NC(CO)C(=O)NC(Cc1c[nH]c2ccccc12)C(=O)N1CCCC1C(=O)NC(CO)C(=O)NC(Cc1c[nH]c2ccccc12)C(=O)NC(Cc1c[nH]cn1)C(=O)NC(CO)C(=O)NC(Cc1c[nH]c2ccccc12)C(=O)NCC(=O)NCC(=O)NC(CC(=O)O)C(=O)NC(CCC(N)=O)C(=O)NC(CCCCN)C(=O)NC(Cc1ccccc1)C(=O)NC(CCCNC(=N)N)C(=O)NC(CCCCN)C(N)=O` (stereo not given) (Ac-CSSWPSWHSWGGDQKFRK-NH2; configuration not given here), the TGI in test [1], in test [2], in test [3], in test [4], in test [5] and in test [6] was more than 25 µM throughout.

For the compound `Cc1cc2c(cc1C)C(=O)C1(C2)Cc2c(ccc(C)c2C)C1=O` (stereo not given), the TGI in test [1], in test [2], in test [3], in test [4], in test [5] and in test [6] was more than 100 µM each time.

On to `NNc1ccccc1Cl`, for which the TGI in test [1], in test [2], in test [3], in test [4], in test [5] and in test [6] was more than 100 µM each time.

Turning to `O=C1C[C@@H](Sc2ccccc2)C2(OCCO2)[C@H]2ON3CCC[C@@H]3[C@@H]12`, the TGI in test [2] stood at 9.7 µM; in test [3] it was 29 µM; in test [4], 4.83 µM; in test [5] it was 17.2 µM; in test [6], 4.58 µM.

Turning to `CC(C)=CCC[C@](C)(O[C@@H]1O[C@H](CO)[C@@H](O)[C@H](O)[C@H]1O)[C@H]1CC[C@]2(C)[C@@H]1[C@H](O)C[C@@H]1[C@@]3(C)CC[C@H](O)C(C)(C)[C@@H]3[C@@H](O[C@@H]3O[C@H](CO)[C@@H](O)[C@H](O)[C@H]3O)C[C@]12C`, the TGI in test [1], in test [2], in test [3], in test [4], in test [5] and in test [6] was more than 100 µM in each case.

Turning to `O=C(Nc1nnc(-c2c(Cl)c(Cl)c(Cl)c(Cl)c2-c2nc3cc(C(=O)c4ccccc4)ccc3[nH]2)o1)c1ccccc1`, the TGI was found to be 39.1 µM in test [1]; 36.7 µM in test [2]; 34.7 µM in test [3]; 30.5 µM in test [4]; 36.5 µM in test [5]; 34.4 µM in test [6].

Consider `O=C1c2ccccc2C(=O)c2c1ccc(C(=O)O)c2-c1ccc2ccccc2c1`, for which the TGI was 56.6 µM in test [2]; more than 100 µM in test [3]; more than 100 µM in test [4]; 81.8 µM in test [5]; 54.1 µM in test [6].

Regarding `O=c1cc(O)c2ccccc2o1`, the TGI in test [1], in test [3], in test [4], in test [5] and in test [6] was more than 100 µM throughout.

For the compound `Cc1c2cccc-2ccc2c1[nH]c1ccc(Br)cc12`, the TGI was 14 µM in test [2]; 23.8 µM in test [3]; 27.5 µM in test [4]; 19.8 µM in test [5]; 20.9 µM in test [6].

Values taken from PubChem BioAssay (NCI).
